Molecules are shown by their SMILES. Bounds are passed on as bounds.

Data on 19 compounds can be found in patent US20210246122A1, “Triazine Compounds and Uses Thereof” (Aduro Biotech, Inc., priority 2018, published 2021).

In the experiment the target is T1, Human cGAS amino acids 155-522 (Homo sapiens, UniProt Q8N884).
T1 construct: hexahistidine tag (N, cleaved yes); made in house; host or cells: E. coli BL21 DE3 Rosetta 2
T1 sequence (Q8N884 157-522): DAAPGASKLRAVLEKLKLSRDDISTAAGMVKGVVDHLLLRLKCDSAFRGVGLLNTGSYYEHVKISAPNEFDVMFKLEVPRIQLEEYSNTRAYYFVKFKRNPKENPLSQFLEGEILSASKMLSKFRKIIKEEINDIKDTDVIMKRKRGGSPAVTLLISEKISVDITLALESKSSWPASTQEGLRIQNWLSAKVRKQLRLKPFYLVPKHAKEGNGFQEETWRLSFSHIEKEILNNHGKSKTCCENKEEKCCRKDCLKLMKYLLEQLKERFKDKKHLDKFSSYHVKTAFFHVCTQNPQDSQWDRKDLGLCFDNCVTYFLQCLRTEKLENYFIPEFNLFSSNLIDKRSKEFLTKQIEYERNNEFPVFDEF
The experiment is described as follows: cGAS activity assay (DNA-activated cGAS, remaining ATP measured by Kinase-Glo Max luciferase assay). It counts as biochemical. The note with it: 300 nM purified cGAS, 1 μM dsDNA, 250 μM ATP, 100 μM GTP, 37° C. for 1.25 hours. How it is done:
IC50 values were determined as follows:
Human cGAS sequence encoding amino acids 155-522 was cloned into a pET (EMD Millipore) based expression plasmid. The resulting construct contained a tandem N-terminal hexahistidine tag, maltose binding protein fusion followed by a tobacco etch virus protease cleavable linker preceding cGAS amino acids 155-522.
Construct sequence: Amino acids 155-522, Human cGAS
Protein was expressed and purified from E. coli BL21 DE3 Rosetta 2 (EMD Millipore) cells using standard techniques. Cells were grown in 2× yeast extract tryptone medium and expression was initiated via the addition of isopropyl β-D-1-thiogalactopyranoside. Expression proceeded overnight at 18° C. Cells were harvested by centrifugation and subsequently lysed via sonication. Insoluble fraction was removed by centrifugation. Maltose binding protein (MBP) fusion proteins were purified on a dextrin sepharose column (GE Healthcare) and the MBP tag was removed using tobacco etch virus protease overnight during dialysis. Protein was further purified on a heparin column (GE Healthcare) and eluted using a NaCl gradient. Column fraction were pooled and further purified on a Superdex 75 gel filtration column (GE Healthcare). Protein was quantified using 280 nm absorbance. Protein was then flash frozen in liquid nitrogen and stored at −80° C. until use.
Potential antagonists were diluted in 100% dimethyl sulfoxide and added to the reaction. Final dimethyl sulfoxide concentration was 5%. The compounds were tested from 1 μM with either 3- or 4-fold serial dilutions down to 0.000051 or 0.000004 μM respectively.
Two complementary DNA oligos (IDT DNA) were annealed by slow cooling from 95° C. The resulting double stranded DNA was used to activate cGAS.
Reactions were performed at 37° C. for 1.25 hours. Reaction buffer: 20 mM Tris HCl pH 9, 100 mM NaCl, 5 mM MgCl2, 0.1 mg/ml bovine gamma globulin, 250 μM adenosine triphosphate, 100 μM guanosine triphosphate, 0.5 mM Tris(2-carboxyethyl)phosphine hydrochloride, 1 μM double stranded DNA and 300 nM purified cGAS protein.
Reactions were stopped and ATP levels in the reaction were measured using a luciferase based assay. Promega Kinase-Glo Max Assay. Luminescence was measured on a plate reader (Molecular Devices). Values were normalized to control wells lacking compound.
For `CNC(=O)[C@H](Cc1ccc(C#N)cc1)Nc1nc(NCc2nc3cc(F)ccc3[nH]2)nc(Nc2cccc(CN3CCN(C=O)CC3)c2)n1` [TA1030, (S)-3-(4-cyanophenyl)-2-((4-(((5-fluoro-1H-benzo[d]imidazol-2-yl)methyl)amino)-6-((3-((4-formylpiperazin-1-yl)methyl)phenyl)amino)-1,3,5-triazin-2-yl)amino)-N-methylpropanamide], the half-inhibitory concentration (IC50) was > 250 µM.

As to `COCCNc1nc(Nc2cccc(CN3CCNCC3)c2)nc(N[C@@H](Cc2ccc(C#N)cc2)C(=O)OC)n1` [TA1031, methyl (S)-3-(4-cyanophenyl)-2-((4-((2-methoxyethyl)amino)-6-((3-(piperazin-1-ylmethyl)phenyl)amino)-1,3,5-triazin-2-yl)amino)propanoate], the IC50 is > 250 µM.

Consider `COC(=O)[C@H](Cc1ccc(C#N)cc1)Nc1nc(NCc2nccn2C)nc(Nc2cccc(CN3CCNCC3)c2)n1` [TA1032, methyl (S)-3-(4-cyanophenyl)-2-((4-(((1-methyl-1H-imidazol-2-yl)methyl)amino)-6-((3-(piperazin-1-ylmethyl)phenyl)amino)-1,3,5-triazin-2-yl)amino)propanoate], for which the 50% inhibitory concentration (IC50) was > 250 µM.

On to `COCCNc1nc(Nc2cccc(CN3CCN(C(=O)c4nccnc4O)CC3)c2)nc(N[C@@H](Cc2ccc(C#N)cc2)C(=O)OC)n1` [TA1033, methyl (S)-3-(4-cyanophenyl)-2-((4-((3-((4-(3-hydroxypyrazine-2-carbonyl)piperazin-1-yl)methyl)phenyl)amino)-6-((2-methoxyethyl)amino)-1,3,5-triazin-2-yl)amino)propanoate], for which the 50% inhibitory concentration (IC50) was > 250 µM.

In the case of `COC(=O)[C@H](Cc1ccc(C#N)cc1)Nc1nc(NCc2nccn2C)nc(Nc2cccc(CN3CCN(C(=O)c4nccnc4O)CC3)c2)n1` [TA1034, methyl (S)-3-(4-cyanophenyl)-2-((4-((3-((4-(3-hydroxypyrazine-2-carbonyl)piperazin-1-yl)methyl)phenyl)amino)-6-(((1-methyl-1H-imidazol-2-yl)methyl)amino)-1,3,5-triazin-2-yl)amino)propanoate], the half-maximal inhibitory concentration (IC50) was > 250 µM.

In the case of `CNc1nc(Nc2cccc(CN3CCN(C(=O)c4nccnc4O)CC3)c2)nc(N[C@@H](Cc2ccc(C#N)cc2)C(=O)OC)n1` [TA1035, methyl (S)-3-(4-cyanophenyl)-2-((4-((3-((4-(3-hydroxypyrazine-2-carbonyl)piperazin-1-yl)methyl)phenyl)amino)-6-(methylamino)-1,3,5-triazin-2-yl)amino)propanoate], the IC50 is > 250 µM.

Regarding `CN(C)C(=O)[C@H](Cc1ccc(C#N)cc1)Nc1nc(NCc2nc3cc(F)ccc3[nH]2)nc(Nc2cccc(CN3CCN(C(=O)OC(C)(C)C)CC3)c2)n1` [TA1036, tert-butyl (S)-4-(3-((4-((3-(4-cyanophenyl)-1-(dimethylamino)-1-oxopropan-2-yl)amino)-6-(((5-fluoro-1H-benzo[d]imidazol-2-yl)methyl)amino)-1,3,5-triazin-2-yl)amino)benzyl)piperazine-1-carboxylate], the IC50 was > 250 µM.

`COC(=O)[C@H](Cc1ccc(C#N)cc1)Nc1nc(NCc2ccccc2)nc(Nc2cccc(CN3CCNCC3)c2)n1` [TA1049, methyl (S)-2-((4-(benzylamino)-6-((3-(piperazin-1-ylmethyl)phenyl)amino)-1,3,5-triazin-2-yl)amino)-3-(4-cyanophenyl)propanoate]: the half-maximal inhibitory concentration (IC50) was > 250 µM.

In turn, `COC(=O)[C@H](Cc1ccc(C#N)cc1)Nc1nc(NCc2ccccc2)nc(Nc2cccc(CN3CCN(C(=O)c4nccnc4O)CC3)c2)n1` [TA1050, methyl (S)-2-((4-(benzylamino)-6-((3-((4-(3-hydroxypyrazine-2-carbonyl)piperazin-1-yl)methyl)phenyl)amino)-1,3,5-triazin-2-yl)amino)-3-(4-cyanophenyl)propanoate] came in with an IC50 of 20 to 250 µM.

Regarding `COC(=O)[C@H](Cc1ccc(C#N)cc1)Nc1nc(Nc2cccc(CN3CCNCC3)c2)nc(N(C)CCc2nc3ccc(OC)cc3[nH]2)n1` [TA1052, methyl (S)-3-(4-cyanophenyl)-2-((4-((2-(6-methoxy-1H-benzo[d]imidazol-2-yl)ethyl)(methyl)amino)-6-((3-(piperazin-d-ylmethyl)phenyl)amino)-1,3,5-triazin-2-yl)amino)propanoate], the half-inhibitory concentration (IC50) is 20 to 250 µM.

Take `COC(=O)[C@H](Cc1ccc(C#N)cc1)Nc1nc(Nc2cccc(CN3CCN(C(=O)c4cnccn4)CC3)c2)nc(N(C)CCc2nc3ccc(OC)cc3[nH]2)n1` [TA1054, methyl (S)-3-(4-cyanophenyl)-2-((4-((2-(6-methoxy-1H-benzo[d]imidazol-2-yl)ethyl)(methyl)amino)-6-((3-((4-(pyrazine-2-carbonyl)piperazin-1-yl)methyl)phenyl)amino)-1,3,5-triazin-2-yl)amino)propanoate]: the IC50 is > 250 µM.

Consider `COC(=O)[C@H](Cc1ccc(C#N)cc1)Nc1nc(Nc2cccc(CN3CCN(C(=O)c4csnn4)CC3)c2)nc(N(C)CCc2nc3ccc(OC)cc3[nH]2)n1` [TA1055, methyl (S)-2-((4-((3-((4-(1,2,3-thiadiazole-4-carbonyl)piperazin-1-yl)methyl)phenyl)amino)-6-((2-(6-methoxy-1H-benzo[d]imidazol-2-yl)ethyl)(methyl)amino)-1,3,5-triazin-2-yl)amino)-3-(4-cyanophenyl)propanoate], for which the half-inhibitory concentration (IC50) was > 250 µM.

As to `COC(=O)[C@H](Cc1ccc(C#N)cc1)Nc1nc(Nc2cccc(CN3CCN(C(=O)[C@@H]4CCCO4)CC3)c2)nc(N(C)CCc2nc3ccc(OC)cc3[nH]2)n1` [TA1056, methyl (S)-3-(4-cyanophenyl)-2-((4-((2-(6-methoxy-1H-benzo[d]imidazol-2-yl)ethyl)(methyl)amino)-6-((3-((4-((S)-tetrahydrofuran-2-carbonyl)piperazin-1-yl)methyl)phenyl)amino)-1,3,5-triazin-2-yl)amino)propanoate], the IC50 was > 250 µM.

Compound `COC(=O)[C@H](Cc1ccc(C#N)cc1)Nc1nc(NCc2nc3cc(Cl)ccc3[nH]2)nc(Nc2cccc(CN3CCNCC3)c2)n1` [TA1058, methyl (S)-2-((4-(((5-chloro-1H-benzo[d]imidazol-2-yl)methyl)amino)-6-((3-(piperazin-1-ylmethyl)phenyl)amino)-1,3,5-triazin-2-yl)amino)-3-(4-cyanophenyl)propanoate] came in with a half-inhibitory concentration (IC50) of 20 to 250 µM.

With `COC(=O)[C@H](Cc1ccc(C#N)cc1)Nc1nc(NCc2nc3cc(Cl)ccc3[nH]2)nc(Nc2cccc(CN3CCN(C(=O)c4cccc(-n5cccn5)c4)CC3)c2)n1` [TA1060, methyl (S)-2-((4-((3-((4-(3-(1H-pyrazol-1-yl)benzoyl)piperazin-1-yl)methyl)phenyl)amino)-6-(((5-chloro-1H-benzo[d]imidazol-2-yl)methyl)amino)-1,3,5-triazin-2-yl)amino)-3-(4-cyanophenyl)propanoate], the half-inhibitory concentration (IC50) is > 250 µM.

Regarding `COC(=O)[C@H](Cc1ccc(C#N)cc1)Nc1nc(NCc2nc3cc(Cl)ccc3[nH]2)nc(Nc2cccc(CN3CCN(C=O)CC3)c2)n1` [TA1062, methyl (S)-2-((4-(((5-chloro-1H-benzo[d]imidazol-2-yl)methyl)amino)-6-((3-((4-formylpiperazin-1-yl)methyl)phenyl)amino)-1,3,5-triazin-2-yl)amino)-3-(4-cyanophenyl)propanoate], the IC50 was 20 to 250 µM.

`COC(=O)[C@H](Cc1ccccc1)Nc1nc(NCc2nc3cc(F)ccc3[nH]2)nc(Nc2cccc(CN3CCNCC3)c2)n1` [TA1064, methyl (4-(((5-fluoro-1H-benzo[d]imidazol-2-yl)methyl)amino)-6-((3-(piperazin-1-ylmethyl)phenyl)amino)-1,3,5-triazin-2-yl)phenylalaninate]: the IC50 was > 250 µM.

Regarding `COC(=O)[C@H](Cc1ccc(C#N)cc1)Nc1nc(NCc2nnn[nH]2)nc(Nc2cccc(CN3CCNCC3)c2)n1` [TA1068, methyl (S)-2-((4-(((1H-tetrazol-5-yl)methyl)amino)-6-((3-(piperazin-1-ylmethyl)phenyl)amino)-1,3,5-triazin-2-yl)amino)-3-(4-cyanophenyl)propanoate], the half-maximal inhibitory concentration (IC50) was > 250 µM.

As for `COC(=O)[C@H](Cc1ccc(C#N)cc1)Nc1nc(NCc2nnn[nH]2)nc(Nc2cccc(CN3CCN(C(=O)c4nccnc4O)CC3)c2)n1` [TA1069, methyl (S)-2-((4-(((1H-tetrazol-5-yl)methyl)amino)-6-((3-((4-(3-hydroxypyrazine-2-carbonyl)piperazin-1-yl)methyl)phenyl)amino)-1,3,5-triazin-2-yl)amino)-3-(4-cyanophenyl)propanoate], the IC50 is > 250 µM.

A word on the IC50: it is the concentration at which inhibition is half-maximal. Read a low IC50 as inhibition by little substance.
